Source: patent US7608411B2, “Prostaglandin receptor EP1” (Ono Pharmaceutical Co., Ltd., priority 2001, dated 2009)
Positions count from the first letter of the chain named.

Tests used:
[1] = target: T1, human EP1 receptor of the present invention (Homo sapiens, UniProt P34995); experiment: Measurement of intracellular Ca2+ concentration in cells expressing human EP1 receptor of the present invention; assay type: cell-based; settings: Fura2-AM fluorescence
T1 construct: The cDNA insert was cut off from pT7BluehEP1 by EcoR1 digestion, and inserted into EcoR1 site of expression vector pdKCR-dhfr; expressed in transfected cells; A1 used their membrane fraction, A3 used whole cells
T1 sequence (P34995 1-402): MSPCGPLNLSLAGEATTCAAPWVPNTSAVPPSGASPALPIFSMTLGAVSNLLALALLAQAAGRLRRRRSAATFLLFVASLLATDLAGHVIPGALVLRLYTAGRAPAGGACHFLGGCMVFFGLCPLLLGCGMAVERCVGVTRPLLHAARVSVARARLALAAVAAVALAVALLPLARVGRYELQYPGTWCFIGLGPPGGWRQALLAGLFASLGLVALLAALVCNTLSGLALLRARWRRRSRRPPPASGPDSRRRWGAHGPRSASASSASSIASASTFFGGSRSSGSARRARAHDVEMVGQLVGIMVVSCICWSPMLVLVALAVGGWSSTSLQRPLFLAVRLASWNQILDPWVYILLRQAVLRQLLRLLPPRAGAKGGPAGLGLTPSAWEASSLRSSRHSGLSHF
Procedure: (§1) The cells were cultured in 500 cm^2 treys to reach confluence, washed with PBS(−), and peeled off by pipeting with PBS(−) on ice. After centrifugation at 800 rpm for 3 minutes, the cell pellet was suspended in medium A (15 ml) and incubated at 37° C. for 50 minutes followed by at room temperature for 10 minutes. After re-centrifugation the pellet was suspended in medium B (1-2×10^6/ml) and used for experiments. In the case that cell suspension contains Fura2-AM (Dojin), the operations were shielded the light by aluminum foil. Stirring the cell suspensions (400 μl) at 600 rpm, the changes of intracellular Ca^2+ concentration were measured by monitoring the changes of fluorescence intensity at both 340 nm and 380 nm and the ratio thereof, using CAM-220 Spectrofluorometer (Nihon Bunko Kogyo).
(§2) Medium A: • α-MEM containing fura2-AM (5 μM)), indomethacin (10 μM), HEPES-NaOH (pH7.4, 10 mM) and 10% FCS,
(§3) Medium B: • α-MEM containing indomethacin (1 μM), HEPES-NaOH (pH7.4, 10 mM) and 0.1% BSA.
(§4) The changes in intracellular Ca^2+ concentration using the cells expressing human EP1 receptor of the present invention and the cells expressing human EP1 receptor described in Japanese Patent No. 3,090,472 were shown in FIG. 3. In FIG. 3, “reference” means the result obtained by using the cells expressing human EP1 receptor described in Japanese Patent No. 3,090,472.

[2] = target: T2, human EP1 receptor described in Japanese Patent No. 3,090,472 (Homo sapiens, UniProt P34995, A71T/L230H); experiment: Measurement of intracellular Ca2+ concentration in cells expressing human EP1 receptor described in Japanese Patent No. 3,090,472; assay type: cell-based; settings: cells expressing human EP1 receptor of Japanese Patent No. 3,090,472 (reference); Fura2-AM fluorescence
T2 construct: expressed in transfected cells; host or cells: cells expressing the receptor of JP 3,090,472
T2 sequence (P34995 1-402 A71T/L230H): T1 sequence (P34995 1-402) with A71T, L230H
Procedure: as §1, §2, §3, §4

[3] = target: T1, human EP1 receptor of the present invention; experiment: Binding assay of [3H]-PGE2 with membrane fraction of CHO cells expressing human EP1 receptor of the present invention; settings: nonspecific binding with 10 μM PGE2
Procedure: 1) Gene Transfection into CHO Cells and Isolation of Clones Expressing Human EP1 Receptor
The cDNA insert was cut off from pT7BluehEP1 by EcoR1 digestion, and inserted into EcoR1 site of expression vector pdKCR-dhfr in the proper orientation. Approximately 25-50 ug of expression plasmid was digested completely with proper restriction enzymes (SalI, SacII etc.), purified by Phenol/CIAA extraction, CIAA extraction and ethanol precipitation, and dissolved in 50 μl of sterilized water. CHO-dhfr(−) cells used as host were suspended in 1.0-1.5×10^6 cells/0.8 ml of PBSuc buffer (sucrose 272 mM, K^+PO4^2− buffer (7 mM, pH7.4) and MgCl2 (1 mM)). […]
Reaction mixtures (200 μl) containing the membrane fraction, which was prepared by the above method and contains human EP1 receptor, and various concentrations of [3H]-PGE2 were incubated at room temperature for a certain time, separated by rapid filtration using Cell Harvester (Brandel). […] Residual [3H]-PGE2 bound to the filter (total binding) was quantitated by liquid scintillation counter. Nonspecific binding was quantitated in a similar manner in the presence of 10 μM of PGE2. […]
The specific binding thus obtained was analyzed by Scatchard plots, an equilibrium dissociation constant (Kd; nM) and a maximum number of specific binding sites (Bmax; fmol/mg protein) were determined. […]

[4] = target: T2, human EP1 receptor described in Japanese Patent No. 3,090,472; experiment: Binding assay of [3H]-PGE2 with cells expressing human EP1 receptor described in Japanese Patent No. 3,090,472; settings: cells expressing human EP1 receptor of Japanese Patent No. 3,090,472 (reference)
Procedure: Reaction mixtures (200 μl) containing the membrane fraction, which was prepared by the above method and contains human EP1 receptor, and various concentrations of [3H]-PGE2 were incubated at room temperature for a certain time, separated by rapid filtration using Cell Harvester (Brandel). The membrane fraction was recovered on glass filter and washed several times with the buffer cooled on ice (1-2 ml/wash). Residual [3H]-PGE2 bound to the filter (total binding) was quantitated by liquid scintillation counter. Nonspecific binding was quantitated in a similar manner in the presence of 10 μM of PGE2. Specific binding was defined as the difference between total binding and nonspecific binding.
The specific binding thus obtained was analyzed by Scatchard plots, an equilibrium dissociation constant (Kd; nM) and a maximum number of specific binding sites (Bmax; fmol/mg protein) were determined. The result obtained using the cells expressing human EP1 of the present invention was shown in FIG. 1, and the result obtained using the cells expressing human EP1 described in Japanese Patent No. 3,090,472 in FIG. 2, respectively.

CCCCC[C@H](O)/C=C/[C@H]1[C@H](O)CC(=O)[C@@H]1C/C=C\CCCC(=O)O [PGE2, prostaglandin E2]
PGE2 dependent elevation of intracellular Ca2+ concentration [1]: detected | PGE2 dependent elevation of intracellular Ca2+ concentration [2]: not detected at all

CCCCC[C@H](O)/C=C/[C@H]1[C@H](O)CC(=O)[C@@H]1C/C=C\CCCC(=O)O [[^3H]-PGE2]
specific binding of [3H]-PGE2 to the receptor [3]: extremely high specific binding | specific binding of [3H]-PGE2 to the receptor [4]: detected
